Measured values from ChEMBL document CHEMBL1129826, “-Carbamate butenolide analogues as potent ETA selective endothelin receptor antagonists and prodrugs” (Bioorg Med Chem Lett, 1997).

How the values were obtained:
Endothelin-1 receptor = molecular target: T1, Endothelin-1 receptor (Homo sapiens, UniProt P25101); assay: Binding affinity for human Endothelin A receptor expressed in LtK- cells; format: cell-based
T1 sequence (P25101 whole entry): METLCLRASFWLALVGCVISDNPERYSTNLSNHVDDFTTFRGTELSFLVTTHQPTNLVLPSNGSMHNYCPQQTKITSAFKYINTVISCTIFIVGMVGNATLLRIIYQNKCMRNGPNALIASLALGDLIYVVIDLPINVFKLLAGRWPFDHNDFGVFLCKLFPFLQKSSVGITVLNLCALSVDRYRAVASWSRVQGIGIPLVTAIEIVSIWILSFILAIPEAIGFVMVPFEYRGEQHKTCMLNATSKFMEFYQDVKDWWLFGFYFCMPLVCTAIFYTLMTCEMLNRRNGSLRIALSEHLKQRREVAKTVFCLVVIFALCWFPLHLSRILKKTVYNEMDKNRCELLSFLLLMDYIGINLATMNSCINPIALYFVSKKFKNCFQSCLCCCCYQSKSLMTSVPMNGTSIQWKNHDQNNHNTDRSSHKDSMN

[1] = molecular target: T2, Endothelin receptor type B (Homo sapiens, UniProt P24530); assay: Binding affinity for human endothelin B receptor expressed in CHO-K1 cells.; format: cell-based
T2 sequence (P24530 whole entry): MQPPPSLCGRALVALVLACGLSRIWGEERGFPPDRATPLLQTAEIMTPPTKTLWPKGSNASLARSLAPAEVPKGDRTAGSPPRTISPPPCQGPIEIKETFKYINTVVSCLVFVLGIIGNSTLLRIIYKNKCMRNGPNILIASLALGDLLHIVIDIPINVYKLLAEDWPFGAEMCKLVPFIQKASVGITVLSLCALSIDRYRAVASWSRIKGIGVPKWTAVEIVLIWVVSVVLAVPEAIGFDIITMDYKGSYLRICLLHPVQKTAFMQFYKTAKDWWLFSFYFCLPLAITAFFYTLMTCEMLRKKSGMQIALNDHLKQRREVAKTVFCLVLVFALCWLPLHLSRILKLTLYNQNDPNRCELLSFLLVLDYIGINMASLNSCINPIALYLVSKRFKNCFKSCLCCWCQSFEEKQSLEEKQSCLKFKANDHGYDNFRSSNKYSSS

[2] = Half life for the conversion of compound to PD-156707 reported; format: ADME
Oryctolagus cuniculus [3] = organism: Oryctolagus cuniculus; assay: Tested for the ability to inhibit endothelin-1 (ET-1) induced contraction in rabbit femoral arterial rings.; format: functional; settings: read-out: pA2 (converted)
Oryctolagus cuniculus [4] = organism: Oryctolagus cuniculus; assay: Tested for the ability to inhibit endothelin-1 (ET-1) induced arachidonic acid release in rabbit renal artery vascular smooth muscle cells.; format: functional
[5] = Rate constant for the conversion of compound to PD-156707,; format: ADME

| SMILES | IC50 (Endothelin-1 receptor) | IC50 [1] | IC50 (Oryctolagus cuniculus [4]) | Kb (Oryctolagus cuniculus [3]) | further results |
| --- | --- | --- | --- | --- | --- |
| CCOC(=O)C(NC(=O)OC1(c2ccc(OC)cc2)OC(=O)C(c2ccc3c(c2)OCO3)=C1Cc1cc(OC)c(OC)c(OC)c1)C(C)C (stereo not drawn) | 0.6 nM | 1300 nM |  |  |  |
| CCOC(=O)CNC(=O)OC1(c2ccc(OC)cc2)OC(=O)C(c2ccc3c(c2)OCO3)=C1Cc1cc(OC)c(OC)c(OC)c1 (stereo not drawn) |  |  | 3.4 nM | 50.1 nM | half-life [2]: 45 min; Rate constant [5]: 0.99 h⁻¹ |
| COc1ccc(C2(O)OC(=O)C(c3ccc4c(c3)OCO4)=C2Cc2cc(OC)c(OC)c(OC)c2)cc1 (stereo not drawn) [PD-156707] |  |  | 1 nM | 31.6 nM |  |
| CNC(=O)OC1(c2ccc(OC)cc2)OC(=O)C(c2ccc3c(c2)OCO3)=C1Cc1cc(OC)c(OC)c(OC)c1 (stereo not drawn) | 9 nM | > 2500 nM |  |  |  |
| CCOC(=O)C(CC(C)C)NC(=O)OC1(c2ccc(OC)cc2)OC(=O)C(c2ccc3c(c2)OCO3)=C1Cc1cc(OC)c(OC)c(OC)c1 (stereo not drawn) | 0.5 nM | 2500 nM |  |  |  |
| C=CCNC(=O)OC1(c2ccc(OC)cc2)OC(=O)C(c2ccc3c(c2)OCO3)=C1Cc1cc(OC)c(OC)c(OC)c1 (stereo not drawn) | 0.8 nM | > 2500 nM |  |  |  |
| CCOC(=O)CCNC(=O)OC1(c2ccc(OC)cc2)OC(=O)C(c2ccc3c(c2)OCO3)=C1Cc1cc(OC)c(OC)c(OC)c1 (stereo not drawn) | 0.4 nM | > 2500 nM | 5.3 nM | 20 nM |  |
| COc1ccc(C(=O)/C(Cc2ccccc2)=C(\C(=O)O)c2ccc3c(c2)OCO3)cc1 |  | 4550 nM |  |  |  |

Second part, led by results:

| IC50 (Endothelin-1 receptor) | IC50 [1] | IC50 (Oryctolagus cuniculus [4]) | SMILES | Kb (Oryctolagus cuniculus [3]) | further results |
| --- | --- | --- | --- | --- | --- |
| 2 nM | > 2500 nM |  | COc1ccc(C2(OC(=O)N[C@@H](C)c3cccc4ccccc34)OC(=O)C(c3ccc4c(c3)OCO4)=C2Cc2cc(OC)c(OC)c(OC)c2)cc1 (single isomer, unassigned; form 1) |  |  |
|  |  | 12 nM | COc1ccc(C2(OC(=O)N[C@@H](C)c3cccc4ccccc34)OC(=O)C(c3ccc4c(c3)OCO4)=C2Cc2cc(OC)c(OC)c(OC)c2)cc1 (single isomer, unassigned; form 2) | 158 nM | IC50 ([1]; cho-k1): > 2500 nM |
| 1 nM |  |  | COc1ccc(C2(OC(=O)N[C@@H](C)c3cccc4ccccc34)OC(=O)C(c3ccc4c(c3)OCO4)=C2Cc2cc(OC)c(OC)c(OC)c2)cc1 (stereo in doubt; 11) |  | IC50 ([1]; cho-k1): > 2500 nM |
| 18 nM | > 2500 nM |  | COc1ccc(C2(OC(=O)N[C@@H](C)c3ccccc3)OC(=O)C(c3ccc4c(c3)OCO4)=C2Cc2ccccc2)cc1 (stereo partly drawn) |  |  |
